Reference: patent US20160025704A1, “METHODS FOR IDENTIFYING NEUROPROTECTIVE PKC ACTIVATORS” (priority 2013, published 2016)

Experiments:
cerebral ischemia rats [1] = assay: Retention of spatial learning and memory after cerebral ischemia (training before ischemia); type: in vivo; details: 15 μg/m^2 tail vein, 2 doses/week for 10 doses; second probe test 2 weeks after last dose (FIG. 22)
Description: Protocol: An initial evaluation of the test rats was undertaken to observe their spatial learning (2 trials/day for 6 days) and memory (a probe test of 1 min, 24 hours after the last trial). Cerebral ischemia was induced 1 day after the probe test, followed by bryostatin-1 (15 μg/m^2) administration through a tail vein (2 doses/week, for 10 doses), starting 24 hours after the end of the ischemic (2-VO)/hypoxic event. A second probe test was performed 2 weeks after the last bryostatin-1 dose. Results are shown in A for the spatial water maze performance of the rats over training trials (2 trials/day for 6 days) before the ischemia/treatment (means±SEM.; trials: F11,383=40.483, P<0.001; groups: F3,383=0.315, P>0.05). Results of the probe test after the training trials before the ischemia and/or treatment are shown in B-E (Quadrant 4 was the target quadrant). Results are shown for the target quadrant ratios before (pre-Isch) and after (post-Isch) the ischemia and/or treatment in F. Results are shown in G for the latency of the first crossing the target location before (pre-Isch) and after (post-Isch) the ischemia and/or treatment. There were eight rats/group (Bry—bryostatin-1; Isch.—cerebral ischemia) (*, P<0.05. NS: P>0.05).

Tg2576 mice = assay: Dendritic spines and synapses in hippocampal CA1 area of Tg2576 mice; type: in vivo
sAPP-α = sAPP-α secretion in an Alzheimer's disease cell line; type: cell-based, human; details: AD cell line
Description: Protocol: An Alzheimer's disease cell line was incubated with bryostatin (0.1 nM), Benzolactam (0.1 nM or 1.0 μM), DMSO, pre-treated with staurosporin (100 nM) plus bryostatin (0.1 nM) for three hours. […] The graph units are relative to the vehicle, DMSO, alone (1).

cerebral ischemia rats [2] = assay: Pyramidal cells, BDNF and synapses in dorsal hippocampal CA1 area after cerebral ischemia; type: in vivo; details: 15 μg/m^2 tail vein for 5 weeks beginning 24 hours after ischemic/hypoxic event
Description: Protocol: Rats were administered bryostatin-1 (15 μg/m^2, tail vein injection) for 5 weeks beginning 24 hours after the end of the ischemic/hypoxic event. […] Non-treated groups received the same vehicle volumes, mechanism of delivery, and frequency of administration as the treated groups.

[3] = tested on: neurons in the CA1 hippocampal area; assay: Apoptotic cell death (TUNEL) in hippocampal CA1 area after ischemic (2-VO)/hypoxic event; type: in vivo; details: 15 μg/m^2 tail vein, 2 doses/week for 10 doses, starting 24 hours after ischemic/hypoxic event; staining 9 day after last dose
Description: Protocol: Bryostatin-1 (15 μg/m^2) was administered through a tail vein (2 doses/week, for 10 doses), starting 24 hours after the end of the ischemic (2-VO)/hypoxic event. Staining for apoptotic cell death in the hippocampal CA1 area was performed 9 day after the last bryostatin-1 dose. […] (C) Quantification of TUNEL staining in stratum radiatum (n=3 animals; n=30 confocal images). Con=control; Bry=bryostatin-1; Isch=cerebral ischemia; ***, P<0.001.

human neprilysin = assay: Membrane localization of neprilysin in SH+hNEP cells (biotinylation, Western blot); type: cell-based; details: 1 nM
Description: Protocols: SHSYSY cells overexpressing human neprilysin (SH+hNEP cells) were incubated with 1 μM oligomeric Aβ(1-42) for 4 hours in the absence or presence of bryostatin (Bryo, 1 nM). Some cells were pre-treated with Ro 32-0432 (Ro, 2 μM, a PKC inhibitor) for 30 min and then treated with Bryo. Cell surface-located proteins were then biotinylated and extracted using streptavidin beads, followed by immunoprecipitation using a neprilysin antibody Immunoprecipitates were subjected to Western blot analysis using neprilysin antibody (Mean+SEM of three independent experiments, **P<0.01, Aβ compared with untreated; #P<0.01, Ro+Bryo compared with Bryo). Results are shown below in FIG. 17.
Protocol: After SH+hNEP cells were untreated or treated with bryostatin (Bryo, 1 nM), or pre-treated with PKC inhibitor Ro 32-0432 (Ro, 2 μM) for 30 min and then treated with Bryo for 1 hour, cell surface located proteins were biotinylated and pulled down using streptavidin beads, followed by immunoprecipitation using a neprilysin antibody. […] Cells were then lysed and neprilysin activity was measured. […] Further incubation with leucine aminopeptidases released free 4-methoxy-2-naphthylamide that was measured fluorometrically at an emission of 425 nm. […]

5XFAD mice = assay: Synaptic loss in hippocampal CA1 area of 5XFAD mice; type: in vivo
Description: Protocol: DCPLA (20 mg/m^2, tail vein injection) was administered to 2-month old 5XFAD mice twice a week. At five months old, hippocampal slices from the brains of the mice were processed for immunohistochemistry and confocal microscopy analysis. Results are shown for analysis of spinophilin density (A, B), synaptophysin density (A, D) not caused by axonal bouton (synaptophysin granules) (C) and neuronal loss (E, F). […] Non-treated groups (wild-type and transgenic (Tg) mice) received the same vehicle volumes, mechanism of delivery, and frequency of administration as the treated groups.

TA 1535 Cells = assay: AMES test, TA1535 cells; type: cell-based; details: TA1535 Cells, plate count
Description: The AMES test is a rapid screening of the mutagenic potential of chemical compounds. […] Between 50% and 70% of all known carcinogens test positive in the AMES test.

[4] = 30 μg/kg intraperitoneal twice a week from 2 months old, analysis at five months

CCC/C=C/C=C/C(=O)O[C@H]1/C(=C/C(=O)OC)C[C@H]2C[C@H]([C@@H](C)O)OC(=O)C[C@H](O)C[C@@H]3C[C@H](OC(C)=O)C(C)(C)[C@](O)(C[C@@H]4C/C(=C/C(=O)OC)C[C@H](/C=C/C(C)(C)[C@]1(O)O2)O4)O3 [Bryostatin, bryostatin-1]
learning experience and memory after cerebral ischemia (cerebral ischemia rats [1]): rescues learning experience and memory
mushroom spine-shape dendritic spines (Tg2576 mice; [4]): prevented decreases in mushroom spine-shape dendritic spines
synapses (electron microscopy) (Tg2576 mice; [4]): prevented decreases
loss of postsynaptic dendritic spines and synapses in the hippocampal CA1 area (Tg2576 mice; Tg2576 mice at 5 months old (FIG. 19)): protects against the loss of postsynaptic dendritic spines and synapses
sAPP-α secretion at lower concentration (sAPP-α; 0.01 nM, time course): much slower but had about the same effect on secretion after 120 min of incubation
amount of sAPP-α in the medium (sAPP-α; 0.1 nM, 3 h incubation, relative to DMSO): dramatically enhanced the amount of sAPP-α in the medium
incubation time at which secretion is near maximal (sAPP-α; 0.1 nM, time course): 160 min
potency in sAPP-α secretion compared with BL (sAPP-α; both at 0.1 nM): more potent than another PKC activator, BL
immunofluorescence intensity of BDNF (cerebral ischemia rats [2]): induced an increase in the immunofluorescence intensity of brain-derived neurotrophic factor (BDNF)
loss of dendritic spines and synapses (cerebral ischemia rats [2]): protected the loss of dendritic spines and synapses
neuronal loss (cerebral ischemia rats [2]; 9 days after last dose): prevented neuronal loss
apoptotic cell death in neurons in the CA1 hippocampal area [3]: prevents apoptotic cell death
membrane localization of neprilysin protein inhibited by Aβ (human neprilysin; 1 μM oligomeric Aβ(1-42), 4 hours): recovers membrane localization of neprilysin protein inhibited by Aβ
neprilysin membrane localization (human neprilysin; 1 hour, without Aβ): enhances neprilysin membrane localization

CCCCCC1CC1CC1CC1CCCCCCCC(=O)O (stereo not drawn) [DCPLA, 8-[2-(2-pentylcyclopropyl)methyl]-cyclopropaneoctanoic acid]
mushroom spine shape dendritic spines and synapses (5XFAD mice; 20 mg/m^2 tail vein twice a week from 2 months old, analysis at five months): protected the decrease in mushroom spine shape dendritic spines and synapses
synaptic loss in hippocampal CA1 area (5XFAD mice; 5XFAD mice at 5 months old (FIG. 20)): prevents synaptic loss
Negative (TA 1535 Cells; 0.125 mM): 95
Positive (TA 1535 Cells; 0.125 mM): 1
Negative (TA 1535 Cells; 0.25 mM): 93
Positive (TA 1535 Cells; 0.25 mM): 3
Negative (TA 1535 Cells; 0.5 mM): 94
Positive (TA 1535 Cells; 0.5 mM): 2
Negative (TA 1535 Cells; 1 mM): 93
Positive (TA 1535 Cells; 1 mM): 3
